Reference: ChEMBL document CHEMBL1130717, “Tricyclic ureas: a new class of HIV-1 protease inhibitors” (Bioorg Med Chem Lett, 1998)

What follows are molecules tested against Human immunodeficiency virus type 1 protease (Human immunodeficiency virus 1, UniProt Q72874) (assay: Compound was tested for the inhibition of HIV-1 protease by assaying the cleavage of a fluorescent peptide using HPLC).

SMILES | Ki [nM]
O=C1N[C@H](Cc2ccccc2)[C@@H](O)[C@H](O)[C@]23CC[C@H](CC2)N13 | 21000
O=C1N(Cc2ccccc2)[C@H](Cc2ccccc2)[C@@H](O)[C@H](O)[C@]23CC[C@H](CC2)N13 | 6300
O=C1N(Cc2ccccc2)[C@H](Cc2ccccc2)[C@H](O)[C@H](O)[C@]23CC[C@H]([C@H](OCc4ccccc4)C2)N13 | 750
O=C1N(Cc2ccc3[nH]ncc3c2)[C@H](Cc2ccccc2)[C@H](O)[C@H](O)[C@]23CC[C@H](CC2)N13 | 2300
O=C1N(Cc2ccccc2)[C@H](Cc2ccccc2)[C@H](O)[C@H](O)[C@]23CC[C@H](CC2)N13 | 2400
O=C1N(Cc2ccc3[nH]ncc3c2)[C@H](Cc2ccccc2)[C@H](O)[C@H](O)[C@]23CC[C@H]([C@H](OCc4ccccc4)C2)N13 | 9
